Where a name gives a salt, the structure may show the parent alone.
How the values were obtained:
hTGR5 = target: T1, hTGR5 (Homo sapiens, UniProt Q8TDU6); assay: FRET-cAMP on TGR5 over-expressing HEH293 cells; format: cell-based
T1 sequence (Q8TDU6 1-330): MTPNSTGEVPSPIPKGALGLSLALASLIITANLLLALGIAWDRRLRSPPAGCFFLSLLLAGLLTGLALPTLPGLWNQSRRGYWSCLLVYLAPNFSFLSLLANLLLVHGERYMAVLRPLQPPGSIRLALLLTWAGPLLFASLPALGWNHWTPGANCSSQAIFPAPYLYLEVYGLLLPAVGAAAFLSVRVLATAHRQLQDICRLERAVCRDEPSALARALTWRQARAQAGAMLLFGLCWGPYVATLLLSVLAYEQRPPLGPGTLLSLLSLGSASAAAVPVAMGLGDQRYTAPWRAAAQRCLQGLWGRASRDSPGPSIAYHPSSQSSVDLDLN
Protocol: Assays were performed in triplicate or quadruplicate for each condition. EC50 values were determined by probit analysis. […] After subtracting the average value of the basal (vehicle-treated) condition, values were applied to EC50 and/or efficacy determinations. Calculation of average EC50 and comparison of the EC50 between different compounds were done after transformation to logarithms.

LXRα = target: T2, LXRα (Homo sapiens, UniProt Q13133); assay: LXR coactivator recruitment (alphascreen); format: biochemical; conditions: ref standard T0901317
T2 sequence (Q13133 1-447): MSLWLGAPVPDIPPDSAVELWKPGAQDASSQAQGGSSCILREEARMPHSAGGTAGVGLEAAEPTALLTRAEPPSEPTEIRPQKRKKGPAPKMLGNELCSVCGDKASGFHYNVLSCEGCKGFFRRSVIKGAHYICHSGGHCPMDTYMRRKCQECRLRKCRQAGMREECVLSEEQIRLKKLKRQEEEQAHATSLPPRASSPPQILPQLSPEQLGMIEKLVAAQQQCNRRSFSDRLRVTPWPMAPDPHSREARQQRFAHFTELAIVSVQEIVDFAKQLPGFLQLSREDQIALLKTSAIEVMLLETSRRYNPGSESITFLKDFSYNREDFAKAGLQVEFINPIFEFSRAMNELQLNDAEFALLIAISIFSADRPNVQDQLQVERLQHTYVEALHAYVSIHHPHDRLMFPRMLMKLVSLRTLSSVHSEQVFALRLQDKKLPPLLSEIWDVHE
Protocol: (§1) The selectivity of compounds of the invention was evaluated using assay methods known in the art. Specifically, the following assay methods were used: • FXR and LXR: Coactivator Recruitment (alphascreen); • TGR5: cAMP level on human intestinal cell line (NCI-H716); • PXR: Ligands Competition assay (Binding Assay) • CAR: Coactivator Recruitment (Lanthascreen)

PXR = target: T3, PXR (Homo sapiens, UniProt O75469); assay: PXR ligands competition assay (binding assay)
T3 sequence (O75469 1-434): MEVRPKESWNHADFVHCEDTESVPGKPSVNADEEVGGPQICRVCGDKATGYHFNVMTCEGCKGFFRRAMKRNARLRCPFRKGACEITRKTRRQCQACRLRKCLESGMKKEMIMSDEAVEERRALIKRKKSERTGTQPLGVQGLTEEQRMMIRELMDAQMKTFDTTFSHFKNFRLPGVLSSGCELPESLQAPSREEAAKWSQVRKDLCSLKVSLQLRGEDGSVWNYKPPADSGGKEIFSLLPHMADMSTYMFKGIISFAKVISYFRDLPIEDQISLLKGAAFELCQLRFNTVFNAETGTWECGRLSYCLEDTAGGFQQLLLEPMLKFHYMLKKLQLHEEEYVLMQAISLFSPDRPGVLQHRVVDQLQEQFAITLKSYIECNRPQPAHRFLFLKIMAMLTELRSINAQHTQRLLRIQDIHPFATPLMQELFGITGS
Protocol: as §1

VDR = target: T4, VDR (Homo sapiens, UniProt P11473); assay: NR selectivity assay VDR; conditions: unnamed ref standard 0.005 μM
T4 sequence (P11473 1-427): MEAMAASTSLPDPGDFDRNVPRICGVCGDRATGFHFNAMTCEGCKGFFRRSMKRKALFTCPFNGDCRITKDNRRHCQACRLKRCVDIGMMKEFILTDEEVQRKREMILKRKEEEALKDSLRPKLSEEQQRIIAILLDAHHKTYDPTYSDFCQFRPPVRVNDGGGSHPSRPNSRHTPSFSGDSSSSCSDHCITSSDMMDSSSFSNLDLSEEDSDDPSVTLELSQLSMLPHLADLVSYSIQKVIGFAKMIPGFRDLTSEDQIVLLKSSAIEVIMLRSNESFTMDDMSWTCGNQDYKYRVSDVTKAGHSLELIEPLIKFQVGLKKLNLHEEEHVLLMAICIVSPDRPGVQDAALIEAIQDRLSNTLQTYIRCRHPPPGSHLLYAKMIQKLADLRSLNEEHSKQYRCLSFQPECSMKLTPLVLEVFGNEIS

Water solubility = format: physicochemical; conditions: for Ws (water solubility): BA as protonated species, 0.1 M HCl, pH 1, hs = highly soluble, not evaluated; for solubility in biological fluids: ionized even at low pH, physiological conditions
Protocol: Solid compound (BA) was suspended in 5 ml of 0.1 M HCl. […] The flow rate was 150 μl/min. The mass spectrometry acquisition was performed in the multiple reaction monitoring mode using the ESI source in negative ionization. Water solubility was expressed as μmol/liter.
The water solubility was measured for the insoluble protonated species of carboxylated bile acids at a pH 1.

bovine serum albumin = target: T5, bovine serum albumin (Bos taurus, UniProt P02769); assay: Albumin binding by equilibrium dialysis; format: in vitro ADME; conditions: 100 μM BA in 5% bovine serum albumin-saline, pH 7.2
T5 construct: dissolved at a concentration of 100 μM in 5% bovine serum albumin-saline solution (pH 7.2); from tissue; host or cells: bovine serum (only from the protein's name)
T5 sequence (P02769 25-607): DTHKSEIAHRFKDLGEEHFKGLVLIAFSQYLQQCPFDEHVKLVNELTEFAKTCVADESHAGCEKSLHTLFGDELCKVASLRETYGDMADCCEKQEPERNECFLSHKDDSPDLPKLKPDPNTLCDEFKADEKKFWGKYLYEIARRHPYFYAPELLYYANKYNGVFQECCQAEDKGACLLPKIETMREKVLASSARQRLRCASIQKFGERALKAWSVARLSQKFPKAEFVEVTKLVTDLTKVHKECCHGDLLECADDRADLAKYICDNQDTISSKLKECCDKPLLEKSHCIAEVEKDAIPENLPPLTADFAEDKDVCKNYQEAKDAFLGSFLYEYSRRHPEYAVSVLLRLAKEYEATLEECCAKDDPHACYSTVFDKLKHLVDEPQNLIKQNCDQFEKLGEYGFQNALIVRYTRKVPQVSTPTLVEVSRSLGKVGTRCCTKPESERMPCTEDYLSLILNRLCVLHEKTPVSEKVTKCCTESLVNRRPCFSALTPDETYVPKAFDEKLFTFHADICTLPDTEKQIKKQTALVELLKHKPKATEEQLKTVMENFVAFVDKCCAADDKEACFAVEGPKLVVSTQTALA
Protocol: The extent of albumin binding was evaluated by equilibrium dialysis at a fixed BA-albumin ratio. BA was dissolved at a concentration of 100 μM in 5% bovine serum albumin-saline solution (pH 7.2) and left to stand for 24 h at 25° C. Two milliliters of this solution was dialyzed in cellulose sacs having a molecular weight cut-off of 12-14,000 against 25 ml of saline solution. The system was equilibrated by mechanical gently shaking for 72 h at 25° C. BA concentrations of the dialyzed solution (corresponding to the free unbound fraction) and of the starting solution were determined with HPLC-ESI-MS/MS in the same conditions of the previous analysis. The percent of albumin binding was calculate from the initial BA concentration and from the unbound concentration in the dialyzed fraction. All these compounds never less present an albumin binding compatible with a relatively fast hepatic uptake, similarly to natural occurring BA. Accordingly different kinetics (slower) of the liver uptake is expected.

Intestinal Bacteria = assay: In vitro metabolic stability in human stool culture; conditions: human stool culture
Protocol: Homogenized fresh human stools (500 mg) were transferred into sterile vials to which 5 mL of sterilized chopped meat-glucose medium (Scott Lab., Fiskville, R.I.) was added. BA were then added at a final concentration of 0.05 mM. Vials were incubated at 37° C.; then, at 0, 1, 2, 4, 8 and 24 h after the addition of the BA, the reaction was stopped with 150 μL of 30% KOH. The samples were centrifuged at 3500 rpm for 10 min; from the supernatant the BA were isolated by C-18 solid-phase extraction and analyzed by TLC and HPLC-ES-MS/MS.
Thin-layer chromatography (TLC), utilizing silica gel 0.25 mm thickness plates (Merck, Darmstat, Germany), was employed as the first screening test. The solvent system used for the separation of conjugated BA was composed of propionic acid/isoamyl acetate/water/N-propanol (3:4:1:2, v/v/v/v; solvent I), and that of the unconjugated BA was acetic acid/carbon tetrachloride/isopropyl ether/isoamyl acetate/water/N-propanol/benzene (1:4:6:8:2:2, v/v/v/v/v/v; solvent II).

Compound	EC50 (hTGR5)	LXRα EC50 (LXRα)	EC50 (PXR)	VDR EC50 (VDR)	Ws (water solubility) (Water solubility)	solubility in biological fluids (Water solubility)	Albumin Binding (bovine serum albumin)	side chain stability (Intestinal Bacteria)	melting point
CCC1C(O)C2C3CCC(C(C)CC(C)OS(=O)(=O)O)C3(C)CCC2C2(C)CCC(O)CC12 [Compound 2A, 3α,7α,23-trihydroxy-6α-ethyl-23(S)-methyl-24-nor-5β-cholan-23-sulfate Sodium Salt]	0.025 µM	No	21 µM	No	hs	always soluble in all biological fluids	97%	quite stable	–
CC[C@H]1[C@@H](O)[C@@H]2[C@H](C[C@H](O)[C@]3(C)[C@@H]([C@H](C)CCCS(=O)(=O)[O-])CC[C@@H]23)[C@@]2(C)CC[C@@H](O)C[C@@H]12.[Na+] [Compound 3A, 3α,7α,12α-trihydroxy-6α-ethyl-5β-cholan-24-sulfonate Sodium Salt]	0.011 µM	No	150 µM	No	hs	always soluble in all biological fluids	81%	very stable	> 280 °C
